Assay results taken from patent US4629723A, “Potent thymopentin analogs” (Ortho Pharmaceutical Corporation, priority 1984, dated 1986).
Non-standard residues stand in square brackets, D forms with d. Residues, ends and D or L forms follow the SMILES beside them. No end group written: not given here. Aib = CC(C)(N)C(=O)O

Columns and labels:
intact CEM cell = assay: Cyclic-GMP assay; type: cell-based, human; details: for Result on the cyclic-GMP assay in words: in comparison with thymopentin; for Concentration of c-GMP Produced: CEM cells, 4-5 min, 37° C.
Source text: This biological activity is evidenced by an assay measuring induction of cyclic-GMP production in a human T-cell line in comparison with thymopoietin. The induction of c-GMP production by a test peptide in this assay indicates the ability of the test peptide to bind to the thymopoietin receptor site on the cell and induce thymopoietin-like biological activity. […] Because of the expense of preparing peptides and the rapid degradation of peptides often observed in living systems, peptides such as those herein which have increased potency are greatly prized.
This assay measures the ability of the test peptide to bind to the cell membrane receptor of the intact CEM cell and selectively stimulate production of cyclic-GMP, as does thymopoietin itself.
The CEM cell line was obtained from the American Type Culture Collection and was cultured in RPMI-1640 medium supplemented with 10% heat-inactivated fetal bovine serum, 10% heat-inactivated horse serum, 2 mM L-glutamine, and 50 µg/ml gentamycin at 37° C. in a humid atmosphere containing 5 percent CO2, to a final density of 3-4×10^6 cells/ml. At this concentration, the cells were in the early stationary phase of the growth curve and were judged greater than 90% viable by trypan blue exclusion. The cells were grown for four days and harvested. After harvesting, the cells were washed three times in PBS and were resuspended in RPMI-1640 medium at a concentration of 3.12×10^7 cells/ml. After the cells had been allowed to equilibrate at 37° C. for 30 min, various concentrations of the test peptides were added in a volume of 25 μl of medium to 1 ml of cells, the initial concentration of test compound added being selected to yield the desired final concentration of test peptide in the medium. The test peptide was mixed instantly with the cell suspension. The incubation was allowed to proceed in a shaking water bath at 37° C. for 4-5 min and was then terminated by addition of ice-cold trichloroacetic acid (10%; 1 ml).
The cells in TCA were then homogenized and sonicated to release cyclic nucleotide. The resulting suspension was centrifuged at 3000 g for 20 min at 4° C. and the resulting precipitate was dissolved in 0.1N NaOH and sonicated for a further 30 minutes, after which the protein content was determined by the method of Cadman, et al., Anal. Biochem., 96, 21-23 (1979). The TCA was removed from the supernatant fraction by extracting four times with 5 ml of water-saturated diethyl ether. After the final extraction, the remaining traces of ether were removed from the supernatant fraction by heating it for 10 min in a 50° C. water bath. After lyophilization of the extracted supernatant fraction, it was reconstituted in 50 mM acetate buffer, ph 6.2, for radioimmunoassay of cyclic nucleotide using the assay kit NEX-133, New England Nuclear, Boston, MA 02113.
A conventional competition radioimmunoassay against radio labelled cyclic GMP was conducted to determine the amount of cyclic GMP induced by each concentration of test peptide. Results are shown in FIG. 1 and in the following table, in which representative subject peptides have been assayed in comparison with thymopentin (designated "TP-5") and a "nonsense" peptide H-ASP-ARG-TYR-LYS-VAL-OH.

[1] = test system: isolated thymopoietin cell surface receptor protein from CEM cells; details: for Displacement of 125I-TP, in words: comparison peptides, competition experiments; for Displacement of 125I-TP relative to that caused by thymopoietin self-displacement: at equivalent concentrations, 2.3×10^-10 M 125I-TP, 4 μg receptor protein, with TP 37-45 nonapeptide, 12 h
[2] = Concentration of Peptide 10^3 μg/ml
[3] = Concentration of Peptide 10^4 μg/ml
[4] = Concentration of Peptide 10^0 μg/ml
[5] = Concentration of Peptide 10^1 μg/ml

Compound: CC(=O)N[C@@H](CCCNC(=N)N)C(=O)N1CCC[C@H]1C(=O)N[C@@H](CC(=O)O)C(=O)N[C@H](C(=O)N[C@@H](Cc1ccccc1)C(N)=O)C(C)C [N-α-acetyl-ARG-PRO-ASP-VAL-PHE-NH2, Acetyl-Arginyl-Prolyl-Aspartyl-Valyl-Phenylalanine-amide] (Ac-RPDVF-NH2)
- Result on the cyclic-GMP assay in words (intact CEM cell): superior results

Compound: CC(C)[C@H](NC(=O)[C@H](CCCCN)NC(=O)[C@H](Cc1ccc(O)cc1)NC(=O)[C@H](CCCNC(=N)N)NC(=O)[C@@H](N)CC(=O)O)C(=O)O [H--ASP--ARG--TYR--LYS--VAL--OH, H-ASP-ARG-TYR-LYS-VAL-OH, reference compound] (H-DRYKV-OH)
- Concentration of c-GMP Produced (intact CEM cell; [2]): 0 picomoles/ml
- Concentration of c-GMP Produced (intact CEM cell; [3]): 0 picomoles/ml
- Concentration of c-GMP Produced (intact CEM cell; Concentration of Peptide 10^5 μg/ml): 0 picomoles/ml

Compound: adrenocorticotropic hormone (SYSMEHFRWGKPVGKKRRPVKVYPNGAEDESAEAFPLEF; Corticotropin; UniProt P01189 138-176, looked up) [ACTH]
- Displacement of 125I-TP, in words [1]: no detectable displacement

Compound: CC(=O)N[C@@H](CCCNC(=N)N)C(=O)N1CCC[C@H]1C(=O)N[C@@H](CC(=O)O)C(=O)N[C@H](C(=O)N[C@@H](Cc1ccccc1)C(=O)O)C(C)C [N-α-acetyl-ARG-PRO-ASP-VAL-PHE-OH, N^α -Acetyl-Arginyl-Prolyl-Aspartyl-Valyl-Phenylaline] (Ac-RPDVF-OH)
- Concentration of c-GMP Produced (intact CEM cell; [4]): 7 picomoles/ml
- Concentration of c-GMP Produced (intact CEM cell; [5]): 15 picomoles/ml

Compound: CC(C)[C@H](NC(=O)[C@H](CC(=O)O)NC(=O)[C@H](CCCCN)NC(=O)[C@@H](N)CCCNC(=N)N)C(=O)N[C@@H](Cc1c[nH]c2ccccc12)C(N)=O [H-ARG-LYS-ASP-VAL-TRP-NH2, Arginyl-Lysyl-Aspartyl-Valyl-Tryptophan amide] (H-RKDVW-NH2)
- Result on the cyclic-GMP assay in words (intact CEM cell): superior results
- Displacement of 125I-TP relative to that caused by thymopoietin self-displacement [1]: at least 50%

Compound: facteur thymique serique [FTS]
- Displacement of 125I-TP, in words [1]: no detectable displacement

Compound: CC(C)[C@H](NC(=O)[C@H](CC(=O)O)NC(=O)[C@H](CCCCN)NC(=O)[C@@H](N)CCCNC(=N)N)C(=O)N[C@@H](Cc1c[nH]c2ccccc12)C(=O)O [H-ARG-LYS-ASP-VAL-TRP-OH, Arginyl-Lysyl-Aspartyl-Valyl-Tryptophan] (H-RKDVW-OH)
- Result on the cyclic-GMP assay in words (intact CEM cell): superior results
- Displacement of 125I-TP relative to that caused by thymopoietin self-displacement [1]: at least 50%

Compound: ubiquitin
- Displacement of 125I-TP, in words [1]: no detectable displacement

Compound: N^α -Acetyl-Arginyl-3,4-dehydro-Prolyl-Aspartyl-Valyl-Tyrosineamide
- Result on the cyclic-GMP assay in words (intact CEM cell): superior results

Compound: CC(C)[C@H](NC(=O)[C@H](CC(=O)O)NC(=O)[C@H](CCCCN)NC(=O)[C@@H](N)CCCNC(=N)N)C(=O)N[C@@H](Cc1c[nH]cn1)C(=O)O [H-ARG-LYS-ASP-VAL-HIS-OH, Arginyl-Lysyl-Aspartyl-Valyl-Histidine] (H-RKDVH-OH)
- Concentration of c-GMP Produced (intact CEM cell; [4]): 0 picomoles/ml
- Concentration of c-GMP Produced (intact CEM cell; [5]): 9 picomoles/ml
- Displacement of 125I-TP relative to that caused by thymopoietin self-displacement [1]: at least 50%

Compound: CC(C)[C@H](NC(=O)[C@H](CC(=O)O)NC(=O)[C@H](CCCCN)NC(=O)[C@@H](N)CCCN=C(N)N)C(=O)N[C@@H](Cc1ccc(O)cc1)C(=O)O [TP-5, H--ARG--LYS--ASP--VAL--TYR--OH, reference compound] (H-RKDVY-OH)
- Concentration of c-GMP Produced (intact CEM cell; [4]): 0 picomoles/ml
- Concentration of c-GMP Produced (intact CEM cell; [5]): 4.5 picomoles/ml
- Concentration of c-GMP Produced (intact CEM cell; Concentration of Peptide 10^2 μg/ml): 9 picomoles/ml
- Concentration of c-GMP Produced (intact CEM cell; [2]): 12 picomoles/ml
- Concentration of c-GMP Produced (intact CEM cell; [3]): 14 picomoles/ml

Compound: C[C@H](N)C(=O)NCC(=O)N[C@H]1CSSC[C@@H](C(=O)O)NC(=O)[C@H](CO)NC(=O)[C@H]([C@@H](C)O)NC(=O)[C@H](Cc2ccccc2)NC(=O)[C@H]([C@@H](C)O)NC(=O)[C@H](CCCCN)NC(=O)[C@H](Cc2c[nH]c3ccccc23)NC(=O)[C@H](Cc2ccccc2)NC(=O)[C@H](Cc2ccccc2)NC(=O)[C@H](CC(N)=O)NC(=O)[C@H](CCCCN)NC1=O [somatostatin]
- Displacement of 125I-TP, in words [1]: no detectable displacement

Compound: growth hormone
- Displacement of 125I-TP, in words [1]: no detectable displacement

Compound: CC(C)[C@H](NC(=O)[C@H](CC(=O)O)NC(=O)[C@@H]1CCCN1C(=O)[C@@H](N)CCCNC(=N)N)C(=O)N[C@@H](Cc1ccccc1)C(=O)O [H--ARG--PRO--ASP--VAL--PHE--OH, Arginyl-Prolyl-Aspartyl-Valyl-Phenylalanine] (H-RPDVF-OH)
- Concentration of c-GMP Produced (intact CEM cell; [4]): 0 picomoles/ml
- Concentration of c-GMP Produced (intact CEM cell; [5]): 12 picomoles/ml
- Displacement of 125I-TP relative to that caused by thymopoietin self-displacement [1]: at least 50%

Compound: corticotropin-releasing factor (SEEPPISLDLTFHLLREVLEMARAEQLAQQAHSNRKLMEII; ends and bridges not checked; UniProt P06850 154-194, looked up) [CRF]
- Displacement of 125I-TP, in words [1]: no detectable displacement

Compound: CC(C)[C@H](NC(=O)[C@H](CC(=O)O)NC(=O)[C@H](CCCCN)NC(=O)[C@@H](N)CCCNC(=N)N)C(=O)N[C@@H](Cc1ccccc1)C(=O)O [H-ARG-LYS-ASP-VAL-PHE-OH, Arginyl-Lysyl-Aspartyl-Valyl-Phenylalanine] (H-RKDVF-OH)
- Concentration of c-GMP Produced (intact CEM cell; [4]): 6 picomoles/ml
- Concentration of c-GMP Produced (intact CEM cell; [5]): 9 picomoles/ml
- Displacement of 125I-TP relative to that caused by thymopoietin self-displacement [1]: at least 50%

Compound: β-endorphin (YGGFMTSEKSQTPLVTLFKNAIIKNAYKKGE; Beta-endorphin; UniProt P01189 237-267, looked up)
- Displacement of 125I-TP, in words [1]: no detectable displacement

Compound: CC(=O)N[C@@H](CCCNC(=N)N)C(=O)NC(C)(C)C(=O)N[C@@H](CC(=O)O)C(=O)N[C@H](C(=O)N[C@@H](Cc1ccccc1)C(N)=O)C(C)C [N-α-acetyl-ARG-AIB-ASP-VAL-PHE-NH2, Acetyl-Arginyl-α-Aminoisobutyryl-Aspartyl-Valyl-Phenylalaminamide] (Ac-R[Aib]DVF-NH2)
- Result on the cyclic-GMP assay in words (intact CEM cell): superior results
